The test system of series [1] is human glioblastoma lines (GBM, line U-87 MG). Kind of series: Anti-GBM activity in vitro on cultures of human U87-MG cells, cell aggregates (CA). In kind it is cell-based. On the procedure: Plastic flat-bottomed 96-well culture plates (NUNC, USA) treated for cell culture (Sigma-Aldrich, ref. 114754) are used; 1500 cells are seeded per well in 200 μl of culture medium. At the time of treatment, 100 μl of pure culture medium, 100 μl of culture medium containing ethanol, or liposomes, or 100 μl of culture medium containing the active ingredients are added per well; the final volume of the culture medium, after treatment, is therefore 300 μl for all the wells.
The human glioblastoma lines (GBM, line U-87 MG) and their culture medium (Eagle's Minimum Essential Medium or EMEM) were obtained from ATCC (USA, ref. ATCC-HTB-14). Culture of the cells is started and maintained according to the recommendations of the ATCC. These lines are commonly used “in vitro” and “in vivo” for testing anti-GBM potential. The doubling time of these lines is 16 h.
The active ingredients are either dissolved in absolute ethanol (AnalaR, NORMAPUR, VWR, France) or in the form of a liposomal solution, such as 10 μl of the stock solutions diluted in 990 μl and then added to the culture wells ([…] medium per well BI-GBM: 300 μl).
When the active ingredients are in ethanolic solution, the culture medium contains […] ethanol (v/v).
Briefly, the compounds to be tested, namely the compounds according to the invention (active ingredients) or 7β-OHCH—C3-ester (a derivative of 7beta-hydroxysterol esterified in position 3 with an oleate group, the synthesis of which is described by Rakotoarivelo et al. (18) and used as control), soya phosphatidylcholine (Sigma) as well as cholesteryl-3-sulphate (Sigma) are taken from their stock solutions prepared from dichloroethane in the case of the active ingredients and the 7β-OHCH—C3-ester, a chloroform:methanol mixture (9:1, v/v) in the case of phosphatidylcholine and chloroform in the case of cholesteryl-3-sulphate. The molar ratios are 1 M/0.1 M/0.25 M for phosphatidylcholine, cholesteryl-3-sulphate and the 7β-OHCH—C3-ester and the active ingredients respectively.
After evaporation, a solution of PBS saline, without Ca^2+ and Mg^2+, pH7.2 (BioRad) is added to the dry compound. The volume of buffer and the mass of the products are adjusted so that 20 or 10 μl of liposomes added to 90 μl of culture medium gives the desired final concentrations. The liposomes are formed by the extrusion technique with Liposofast (Sodexim, SA Muizon, France). The solution is passed through polycarbonate filtration membranes (100 nm) 41 times. The liposomes are sterilized by filtration on […] Millipore membranes.
For example, in the case of the cultures in 96-well plates and as a function of the magnification of the microscope used (objectives×10 or ×20, oculars×10), a photograph taken represents a field of view with a diameter equal to 1/5 of the diameter of a well. Therefore the total number of cells in a well is equal to […] the number of cells per photograph. This technique was compared with a standard technique (trypsinization of the cell layer, centrifugation of the cells, suspension of the cells in physiological saline solution and counting with a THOMA cell) in the case of the C6 cells. The results obtained are identical for both methods.
The culture medium is withdrawn from each well and 50 μl of Laemmli buffer (0.1 ml of Tris, 0.8 ml of glycerol, 1.6 mL of 10% SDS, 8 ml q.s.f ultrapure water) is added per well.
This test makes it possible to detect the cellular respiration, especially the mitochondrial respiration. The stock solution of tetrazolium salt MTT (3-(4,5-dimethylthiazol-2-yl)-2,5-diphenyl tetrazolium bromide, Sigma-Aldrich, USA, ref. M5655) is prepared with 10 mg of MIT/ml of PBS buffer (phosphate-buffered saline, SIGMA, ref. D 1408). This solution is added directly to the culture medium in each well; the final concentration of MTT is 25 μg/ml. The plate is then incubated at 37° C. for at least 1 h. […]

Series [2] concerns normal (non-cancerous) human astrocytes. Description: Toxicity in vitro on primary cultures of normal human astrocytes. In kind it is cell-based. To be noted: 30 μM, after 30 days of treatment. The method, then: The astrocyte cells of human origin used were obtained from ScienCell, USA (ref. 1800) as well as their culture medium, made up of basic medium containing 2% (v/v) FCS serum (ref. 0010), astrocyte growth proteins (AGS, ref. 1852) and a solution of penicillin/streptomycin (ref. 0503). The doubling time of these human astrocytes is 96 h. • Hepatic cells
(§1) The same methods are used for both cases. For the activity, the anti-GBM potential of the test compounds is used, and the toxicity, is tested on normal cells of human origin maintained “in vitro”.
The cells used are cells of human origin (ScienCell, USA, ref. 1800), mentioned above (section II, A).
The astrocyte type is validated by the presence of GFAP, the standard marker of normal astrocytes (FIG. 11; magnification×200).

The test system of series [3] is liver cells. Kind of series: Toxicity in vitro on primary cultures of liver cells. Format: cell-based, human. The following applies: 30 μM, at least 30 days of treatment. The method, then: Of human origin, they were obtained from ScienCell, USA (ref. 50200) as was the culture medium (ref. 5201), which contains 10% (v/v) FCS. The doubling time of these cells is 24 h. • Renal cells
as §1
(§2) The cells used are liver cells (ScienCell, USA, ref. 50200), kidney cells (ScienCell, USA, ref. 4120), skeletal muscle cells (ScienCell, USA, ref. 3500) and cardiac cells (ScienCell, USA, ref. 6300), of human origin, mentioned above (section II, A).

For series [4], the system named is kidney cells. Description: Toxicity in vitro on primary cultures of kidney cells. In kind it is cell-based, human. The following applies: 30 μM, at least 30 days of treatment. The method, then: These cells, of human origin, were obtained from ScienCell, USA (ref. 4120) as was the culture medium (ref. 4101), which contains 10% (v/v) FCS. The doubling time is 96 h. • Cardiac cells
as §1, §2

Series [5] relates to skeletal muscle cells. Kind of series: Toxicity in vitro on primary cultures of skeletal muscle cells. To be noted: 30 μM, at least 30 days of treatment. In kind it is cell-based, human. On the procedure:
Of human origin, they were obtained from ScienCell, USA (ref. 3500) as was the culture medium (ref. 3501), which contains 10% (v/v) FCS. The doubling time for these cells is 72 h.
as §1, §2

Series [6] has as its system cardiac cells. Kind of series: Toxicity in vitro on primary cultures of cardiac cells. Format: cell-based, human. The following applies: 30 μM, at least 30 days of treatment. The method, then:
These cells, of human origin, were obtained from ScienCell, USA (ref. 6300) as was the culture medium, which contains 10% (v/v) FCS. The doubling time is 72 h. • Skeletal muscle cells
as §1, §2

Consider `CC(C)CCCC(C)C1CCC2C3C(OC(=O)OC(C)(C)C)C=C4CC(OC(=O)C5COC(C)(C)O5)CCC4(C)C3CCC12C` (stereo not drawn) [Molecule 2.a, 7-((tert-butoxycarbonyl)oxy)-10,13-dimethyl-17-(6-methylheptan-2-yl)-2,3,4,7,8,9,10,11,12,13,14,15,16,17-tetradecahydro-1H-cyclopenta[a]phenanthren-3-yl 2,2-dimethyl-1,3-dioxolane-4-carboxylate], for which, in series [1] (15 μM, liposomal form, 15 days of treatment), the “presence of GBM cells (CA)” value is recorded as “zero”. Moreover, the “cellular respiration before cell death” value in series [1] (liposomal form) is given as “cellular respiration increases before cell death”. For the same compound, in series [1] (liposomal form, 8 days of treatment), the “MTT/cell relative to the controls” value is recorded as 140%. Further, the “cell multiplication after replacing the medium with fresh drug-free medium” value in series [1] (liposomal form, medium replaced on the 13th day of treatment) is given as “no cell multiplication is observed”. Besides, the toxicity result in series [2] (liposomal form), in series [3] (liposomal form), in series [4] (liposomal form), in series [5] (liposomal form) and in series [6] (liposomal form) was “not toxic” each time.

Regarding `CC(=O)OC1C=C2CC(OC(=O)C3COC(C)(C)O3)CCC2(C)C2CCC3(C)C(C(C)CCCC(C)C)CCC3C12` (stereo not drawn) [Molecule 2.b, 7-acetoxy-10,13-dimethyl-17-(6-methylheptan-2-yl)-2,3,4,7,8,9,10,11,12,13,14,15,16,17-tetradecahydro-1H-cyclopenta[a]phenanthren-3-yl 2,2-dimethyl-1,3-dioxolane-4-carboxylate], the “remaining GBM cells” value in series [1] (30 μM, ethanolic form, even after removing the active ingredient) is listed as “no GBM cell remains”. In addition, in series [1] (ethanolic form), the “cellular respiration before cell death” value is listed as “cellular respiration increases before cell death”. Besides, in series [1] (ethanolic form), the “reduction of the level of proteins relative to the untreated control cells” value is 100%. In series [1] (medium replaced at 22 days), the “cellular multiplication after replacement of the culture medium with fresh drug-free medium” value is on record as “does not lead to any cellular multiplication”. Further, the toxicity result in series [2] (ethanolic form), in series [3] (ethanolic form), in series [4] (ethanolic form), in series [5] (ethanolic form) and in series [6] (ethanolic form) was “not toxic” each time.

(Values after patent publication US10800806B2, “Sterol derivatives and use thereof for treating diseases involving transformed astrocyte cells or for treating malignant haemopathies” (BETA INNOV, priority 2012, dated 2020).)
